The values below are quoted from earlier work in patent US12447051B2, “Multi-functional analgesic-releasing wound dressing” (University of Utah Research Foundation, priority 2020, dated 2025).

Series [1] concerns Primary human dermal fibroblast cell cultures. The note with it: bupivacaine concentration of the extracts.

On to `CCCCN1CCCCC1C(=O)Nc1c(C)cccc1C` (centres unmarked) [bupivacaine], for which the cytotoxic threshold in series [1] is 0.5 % w/w.

Take poly(lactide-co-caprolactone) [PLC]: the in vivo degradation entry is “greater than 6 months”.
